Assay results taken from EP0571670A1, “Pharmaceutical compositions for use as mast cell stabilizer” (THE PROCTER & GAMBLE COMPANY, priority 1992, dated 1993).
Read-outs that look alike come from different tables or passages of the source.

Experiments:
[1] = tested on: rat peritoneal mast cells; experiment: Mast cell stabilization test: induced histamine release; type: cell-based, Wistar male rats; details: at the concentrations used: sodium cromoglycate 0.005 %, menthol 0.025 %, camphor 0.015 %, eucalyptol 0.0075 %
Procedure: (§1) Peritoneal rat mast cells are collected from 250 to 300 g Wistar male rats by the following procedure. Following sacrifice, each rat is injected into the peritoneal cavity with 10 ml of ice cold HEPES-buffered salt solution (HBSS), pH 7.2, containing 5 U/ml heparin. The HBSS contains 137 mM of […], 10mM HEPES, 5mM D-glucose, 2.7 mM KCl, 0.4 mM NaH₂PO₄, 0.5 mM MgCl₂ and 1 % foetal calf serum (FCS). The abdomen is massaged gently for 2 to 3 minutes and then an incision is made in the abdomen, the buffer removed by a pipette, and the peritoneal cavity lavaged twice with ice-cold HBSS. The extract is then centrifuged at 200 rpm for 10 minutes at 20°C to collect the peritoneal mast cells. These cells are then suspended again in HBSS. A count of cells present is made using an aliquot of this suspension by staining with Kimura metachromatic stain. Typically, about 1.2 to 1.7x10⁶ mast cells are collected from each animal. The rat mast cells are then activated using a Compound 48/80 in the presence of the test aromatic and antihistamine compounds and histamine-release measured as follows. 720 µl aliquots containing 9 x 10⁴ mast cells at 37°C are added to vials containing various combinations of aromatic flavour compounds. The concentrations of tyloxapol, menthol, camphor, and eucalyptol are 0.7 %, 0.025 %, 0.015 %, and 0.0075 % respectively. The solutions are incubated for about 10 minutes before 200 µl aliquots are added to tubes containing 25 µl of Compound 48/80, 25 µl of sodium cromoglycate and/or buffer, giving a concentration of Compound 48/80 and sodium cromoglycate in the tubes of […] and 0.005 % respectively. The histamine release reactions in the tubes is terminated after 10 minutes (37°C) by adding 750 µl of ice-cold HBSS and centrifuging the resulting solution for 10 minutes at 2000 rpm at 4°C. The histamine released by stimulus and the total cell histamine content are respectively determined by assaying the supernatant liquid after acidification with 5 % trichloroacetic acid (TCA) and by disintegrating the cells in 5 % (TCA) followed by analysis by automated spectrofluoremetry. […] (The net histamine release induced by compound 48/80 at the concentration used (0.1 µg/ml) was about three times the net histamine release induced by tyloxapol (15.07 ± 2.0 %)).

[2] = tested on: rat peritoneal mast cells; experiment: Mast cell stabilization test: histamine release inhibition; type: cell-based, Wistar male rats; details: for inhibition at 100 µM: Rattus norvegicus, Mast cell, 100 µM of sodium cromoglycate
Procedure: as §1, with “Eucalyptol” for “(The net histamine release induced by compound 48/80”, “0.0075 % gave a 9 % (non-significant) inhibitory effect. Menthol at 0.025 %” for “the concentration used (0.1 µg/ml)”, “not effective.” for “about three times the net histamine release induced by tyloxapol (15.07 ± 2.0 %)).”

Compound | release of histamine induced by the substance [1] | inhibition of histamine release against Compound 48/80 and tyloxapol-induced histamine release ([2]; camphor at 0.015 %, series of five experiments) | inhibitory effect on histamine release ([2]; eucalyptol at 0.0075 %, non-significant) | inhibition of histamine release ([2]; menthol at 0.025 %) | inhibition at 100 µM ([2]; read-out: inhibition of Compound 48/80-induced histamine release) | inhibition at 100 µM ([2]; read-out: inhibition of tyloxapol-induced histamine release)
CC12CCC(CC1=O)C2(C)C (stereo not drawn) [camphor] | did not induce release of histamine | 45% |  |  |  | 
CC12CCC(CC1)C(C)(C)O2 [eucalyptol] | did not induce release of histamine |  | 9% |  |  | 
CC1CCC(C(C)C)C(O)C1 (stereo not drawn) [menthol] | did not induce release of histamine |  |  | not effective |  | 
O=C(O)c1cc(=O)c2c(OCC(O)COc3cccc4oc(C(=O)O)cc(=O)c34)cccc2o1 [sodium cromoglycate] | did not induce release of histamine |  |  |  | 67% | 152%
